From patent US10294246B2, “Substituted boronic acids and boronate esters as immunoproteasome inhibitors” (MERCK PATENT GMBH, priority 2014, dated 2019)

Columns and labels:
[1] = target: human immunoproteasome (LMP7) (Homo sapiens (Human), UniProt P28062); assay: Determination of LMP7 activity (fluorescence intensity assay, Suc-LLVY-AMC); type: biochemical; conditions: for Selectivity LMP7 vs Beta5: LMP7 versus Beta5; for IC50: purified human immunoproteasome 0.25 nM, Suc-LLVY-AMC 40 μM
Method: Determination of LMP7 Activity:
Measurement of LMP7 inhibition is performed in 384 well format based on fluorescence intensity assay.
(§1) Purified human immunoproteasome (0.25 nM) and serial diluted compounds in DMSO (range of concentrations from 30 μM to […]) or controls are incubated for 20 minutes at 25° C. in assay buffer containing 50 mM Tris pH 7.4, 0.03% SDS, 1 mM EDTA and 1% DMSO. The reaction is initiated by the addition of the fluorogenic peptide substrate, Suc-LLVY-AMC (Bachem 1-1395), at a concentration of 40 μM. After 60 minutes of incubation at 37° C., fluorescence intensity is measured at λex=350 nm and λem=450 nm with a fluorescence reader (Perkin Elmer Envision reader or equivalent).

[2] = target: human constitutive proteasome (Beta5) (Homo sapiens (Human), UniProt P28074); assay: Determination of Beta5 activity (fluorescence intensity assay, Suc-LLVY-AMC); type: biochemical; conditions: purified human constitutive proteasome 1.25 nM, Suc-LLVY-AMC 40 μM
Method: Determination of Beta5 Activity:
Measurement of Beta5 inhibition is performed in 384 well format based on fluorescence intensity assay.
as §1, with “constitutive proteasome (1.25” for “immunoproteasome (0.25”

| Structure (SMILES) | Selectivity LMP7 vs Beta5 [1] | IC50 [1] [nM] | IC50 [2] [nM] |
| --- | --- | --- | --- |
| Cc1cccc2c(C[C@@H](NC(=O)[C@@H](CO)c3ccccc3)B(O)O)coc12 [Compound No. 84, [(1S)-1-[[(2R)-3-hydroxy-2-phenyl-propanoyl]amino]-2-(7-methylbenzofuran-3-yl)ethyl]boronic acid] | ++ (10 ≤ Selectivity < 50) | 500 to 5000 | > 5000 |
| COc1ccc(CC(=O)N[C@H](Cc2coc3c(C)cccc23)B(O)O)cc1 [Compound No. 81, [(1S)-1-[[2-(4-methoxyphenyl)acetyl]amino]-2-(7-methylbenzofuran-3-yl)ethyl]boronic acid] | +++++ (Selectivity ≥ 100) | 50 to 500 | > 5000 |
| Cc1cccc2c1OCC2C[C@H](NC(=O)Cc1ccccc1C(=O)N(C)C)B(O)O (stereo partly drawn) [Compound No. 100, [(1R)-1-[[2-[2-(dimethylcarbamoyl)phenyl]acetyl]amino]-2-(7-methyl-2,3-dihydrobenzofuran-3-yl)ethyl]boronic acid] | +++++ (Selectivity ≥ 100) | 50 to 500 | > 5000 |
| COc1ccc(CC(=O)N[C@@H](Cc2cc3ccccc3o2)B(O)O)cc1 [Compound No. 108, [(1R)-2-(benzofuran-2-yl)-1-[[2-(4-methoxyphenyl)acetyl]-amino]ethyl]boronic acid] | +++++ (Selectivity ≥ 100) | < 50 | 500 to 5000 |
| N#Cc1ccccc1CC(=O)N[C@@H](C[C@H]1COc2c(Cl)cccc21)B(O)O [Compound No. 135, [(1R)-2-[(3R)-7-chloro-2,3-dihydrobenzofuran-3-yl]-1-[[2-(2-cyanophenyl)acetyl]amino]ethyl]boronic acid] | +++++ (Selectivity ≥ 100) | 50 to 500 | > 5000 |
| O=C(Cc1ccccc1)N[C@@H](C[C@@H]1COc2c(Cl)cccc21)B(O)O [Compound No. 132, [(1R)-2-[(3S)-7-chloro-2,3-dihydrobenzofuran-3-yl]-1-[(2-phenylacetyl)amino]ethyl]boronic acid] | +++++ (Selectivity ≥ 100) | < 50 | 500 to 5000 |
| O=C(Cc1ccc(-c2ccccc2)cc1)N[C@@H](Cc1coc2ccccc12)B(O)O [Compound No. 67, [(1R)-2-(benzofuran-3-yl)-1-[[2-(4-phenylphenyl)acetyl]amino]ethyl]-boronic acid] | ++ (10 ≤ Selectivity < 50) | < 50 | 500 to 5000 |
| O=C(Cc1ccccc1)N[C@@H](CC1COc2ccccc21)B(O)O (stereo partly drawn) [Compound No. 74, [(1R)-2-(2,3-dihydrobenzofuran-3-yl)-1-[(2-phenylacetyl)amino]-ethyl]boronic acid] | +++++ (Selectivity ≥ 100) | < 50 | 500 to 5000 |
| Cc1c(Cl)ccc2c(C[C@H](NC(=O)Cc3ccccc3)B(O)O)coc12 [Compound No. 126, [(1R)-2-(6-chloro-7-methyl-benzofuran-3-yl)-1-[(2-phenylacetyl)-amino]ethyl]boronic acid] | +++++ (Selectivity ≥ 100) | < 50 | 500 to 5000 |
| COc1ccc(OC)c(CC(=O)N[C@@H](Cc2coc3c(C)cccc23)B(O)O)c1 [Compound No. 78, [(1R)-1-[[2-(2,5-dimethoxyphenyl)acetyl]amino]-2-(7-methylbenzofuran-3-yl)ethyl]boronic acid] | +++++ (Selectivity ≥ 100) | < 50 | 500 to 5000 |
| COc1ccc(CCC(=O)N[C@@H](CC2COc3c(C)cccc32)B(O)O)nc1 (stereo partly drawn) [Compound No. 86, [(1R)-1-[3-(5-methoxy-2-pyridyl)propanoylamino]-2-(7-methyl-2,3-dihydrobenzofuran-3-yl)ethyl]boronic acid] | +++++ (Selectivity ≥ 100) | < 50 | > 5000 |
| O=C(Cc1ncccc1C(=O)N1CCOCC1)N[C@@H](Cc1coc2ccccc12)B(O)O [Compound No. 119, [(1R)-2-(benzofuran-3-yl)-1-[[2-[3-(morpholine-4-carbonyl)-2-pyridyl]acetyl]amino]ethyl]boronic acid] | +++++ (Selectivity ≥ 100) | < 50 | 500 to 5000 |
| C[C@H](C(=O)N[C@@H](C[C@@H]1COc2ccccc21)B(O)O)c1ccccc1C(=O)N(C)C [Compound No. 107, [(1R)-2-[(3S)-2,3-dihydrobenzofuran-3-yl]-1-[[(2S)-2-[2-(dimethylcarbamoyl)phenyl]propanoyl]amino]ethyl]boronic acid] | ++ (10 ≤ Selectivity < 50) | 500 to 5000 | > 5000 |
| Cc1ccc(C[C@H](NC(=O)Cc2ccc(N3CCCC3=O)cc2)B(O)O)c(C)c1 [Compound No. 43, [(1R)-2-(2,4-dimethylphenyl)-1-[[2-[4-(2-oxopyrrolidin-1-yl)phenyl]-acetyl]amino]ethyl]boronic acid] | +++++ (Selectivity ≥ 100) | < 50 | 500 to 5000 |

Other lines, results leading:

| Selectivity LMP7 vs Beta5 [1] | IC50 [1] [nM] | IC50 [2] [nM] | Structure (SMILES) |
| --- | --- | --- | --- |
| +++++ (Selectivity ≥ 100) | – | 500 to 5000 | COc1ccc(C(F)(F)C(=O)N[C@@H](Cc2coc3ccccc23)B(O)O)cc1 [Compound No. 51, [(1R)-2-(benzofuran-3-yl)-1-[[2,2-difluoro-2-(4-methoxyphenyl)acetyl]-amino]ethyl]boronic acid] |
| +++++ (Selectivity ≥ 100) | < 50 | 500 to 5000 | O=C(Cc1ccccc1C(F)(F)F)N[C@@H](Cc1coc2ccccc12)B(O)O [Compound No. 24, [(1R)-2-(benzofuran-3-yl)-1-[[2-[2-(trifluoromethyl)phenyl]acetyl]-amino]ethyl]boronic acid] |
| +++++ (Selectivity ≥ 100) | < 50 | 500 to 5000 | Cc1cccc2c(C[C@H](NC(=O)Cc3ccccc3)B(O)O)coc12 [Compound No. 75, [(1R)-2-(7-methylbenzofuran-3-yl)-1-[(2-phenylacetyl)amino]-ethyl]boronic acid] |
| +++++ (Selectivity ≥ 100) | < 50 | 500 to 5000 | CCOc1ccc(CC(=O)N[C@@H](Cc2coc3c(Cl)cccc23)B(O)O)nc1 [Compound No. 113, [(1R)-2-(7-chlorobenzofuran-3-yl)-1-[[2-(5-ethoxy-2-pyridyl)acetyl]amino]ethyl]boronic acid] |
| ++ (10 ≤ Selectivity < 50) | < 50 | 50 to 500 | COc1cc(CC(=O)N[C@@H](Cc2coc3ccccc23)B(O)O)cc(OC)c1OC [Compound No. 52, [(1R)-2-(benzofuran-3-yl)-1-[[2-(3,4,5-trimethoxyphenyl)acetyl]amino]-ethyl]boronic acid] |
| +++++ (Selectivity ≥ 100) | < 50 | 50 to 500 | O=C(Cc1ccccc1OC1CCOCC1)N[C@@H](Cc1coc2ccccc12)B(O)O [Compound No. 54, [(1R)-2-(benzofuran-3-yl)-1-[[2-(2-tetrahydropyran-4-yloxyphenyl)-acetyl]amino]ethyl]boronic acid] |
| +++++ (Selectivity ≥ 100) | < 50 | 50 to 500 | O=C(Cc1ccc(OCCCO)cc1)N[C@@H](Cc1coc2ccccc12)B(O)O [Compound No. 40, [(1R)-2-(benzofuran-3-yl)-1-[[2-[4-(3-hydroxypropoxy)phenyl]acetyl]-amino]ethyl]boronic acid] |
